Reference: patent publication US9796706B2, “Inhibitors of Jun N-terminal kinase” (IMAGO PHARMACEUTICALS, INC., priority 2009, dated 2017)
pIC50: −log10 of the molar value.

Columns and labels:
JNK3 = JNK3 (Homo sapiens (Human), UniProt P53779); assay: JNK3 TR-FRET kinase assay (Example 14); type: biochemical; settings: procedures of Example 14 (TR-FRET)
Summary of the method: (§1)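 Two TR-FRET formats were used for each JNK isoform. In the direct one, preactivated aJNK phosphorylated EPIW-1 at about 1 mM final ATP (RT, 15 min). Both were EDTA-quenched and read by HTRF.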

JNK1 = JNK1 (Homo sapiens (Human), UniProt P45983); assay: JNK1 TR-FRET kinase assay (Example 14); type: biochemical; settings: procedures of Example 14 (TR-FRET)
Summary of the method: as §1

JNK2 = JNK2 (Homo sapiens (Human), UniProt P45984); assay: JNK2 TR-FRET kinase assay (Example 14); type: biochemical; settings: procedures of Example 14 (TR-FRET)
Summary of the method: as §1

[1] = system: phosphorylated c-jun (p-cjun); assay: Inhibition of kainic acid induced phospho-cJun upregulation in mice hippocampi; type: in vivo
Protocol: Female, FVB/N mice (Taconic) were treated by oral gavage (PO) with one 300 mg/kg dose of N-(4-chloro-3-(1H-1,2,4-triazol-5-yl)thiophen-2-yl)-2-(isoquinolin-5-yl)acetamide or vehicle (0.9% saline) at a 5 ml/kg dose volume. Control animals were dosed with vehicle. Thirty minutes later animals were treated interperitoneally with 25 mg/kg of kainic acid or saline at a 10 ml/kg dose volume. Kainic acid was formulated in 0.9% saline. Four hours after kainic acid administration animals were euthanized by carbon dioxide and were transcardially perfused with 0.9% saline. Brains were removed, and separated into left and right hemispheres. The hippocampus was dissected from the right hemisphere, frozen on dry ice and kept at −80° C. until used for quantitation of p-cjun levels.
Preweighed hippocampus tissues were homogenized in cold cell extraction buffer (CEB) containing 1% Triton X-100, 0.1% SDS, 0.5% deoxycholate, 20 mM Na4P2O7, 2 mM Na3VO4, 0.1% SDS and protease inhibitors (PI, 2 mg/mL aprotinin and 1 mg/mL leupeptin) at a ratio of 9:1 CEB to wet tissue weight. Homogenized samples were analyzed using PathScan Phospho-c-Jun (Ser63) Sandwich ELISA Kit II from Cell Signaling Technology. Samples were diluted 1:10 in sample diluent provided in the kit. An 8-point standard curve was prepared by diluting a 10 ng/mL phos-c-Jun standard 1:3 in 10% CEB/PI in sample diluent. Samples and standards were added at 100 μL per well to prewetted ELISA plates which contain a phos-c-jun (ser63)-specific rabbit monoclonal capture antibody and incubated overnight at 4° C. The plate was then allowed to warm to room temperature and washed three times using TBS+0.05% Tween 20 (TTBS). To each well were added 100 μL of a mouse monoclonal c-Jun detection antibody and the plate was incubated at 37° C. for 1 hour. The plate was washed three times in TTBS, then 100 μL per well of an anti-mouse IgG HRP-linked antibody was added. […] The colorimetric reaction was read using a Molecular Devices Spectramax plate reader and sample data was calculated from the standard curve fit to a 4-parameter function.

Sequence of JNK2 (P45984 whole entry, species assumed): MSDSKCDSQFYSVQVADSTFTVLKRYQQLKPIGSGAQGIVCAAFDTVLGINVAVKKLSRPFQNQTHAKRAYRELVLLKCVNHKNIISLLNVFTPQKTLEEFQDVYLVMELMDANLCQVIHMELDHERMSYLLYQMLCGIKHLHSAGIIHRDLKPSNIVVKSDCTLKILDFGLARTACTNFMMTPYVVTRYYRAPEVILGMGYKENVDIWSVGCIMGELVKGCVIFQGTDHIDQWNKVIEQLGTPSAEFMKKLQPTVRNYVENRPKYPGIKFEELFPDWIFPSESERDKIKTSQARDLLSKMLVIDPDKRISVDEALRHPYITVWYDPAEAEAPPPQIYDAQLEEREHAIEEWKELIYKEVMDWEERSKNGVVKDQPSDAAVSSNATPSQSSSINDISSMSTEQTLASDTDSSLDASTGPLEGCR
Sequence of JNK1 (P45983 other isoform, or with tags, fused parts or gaps isoform P45983-2, species assumed): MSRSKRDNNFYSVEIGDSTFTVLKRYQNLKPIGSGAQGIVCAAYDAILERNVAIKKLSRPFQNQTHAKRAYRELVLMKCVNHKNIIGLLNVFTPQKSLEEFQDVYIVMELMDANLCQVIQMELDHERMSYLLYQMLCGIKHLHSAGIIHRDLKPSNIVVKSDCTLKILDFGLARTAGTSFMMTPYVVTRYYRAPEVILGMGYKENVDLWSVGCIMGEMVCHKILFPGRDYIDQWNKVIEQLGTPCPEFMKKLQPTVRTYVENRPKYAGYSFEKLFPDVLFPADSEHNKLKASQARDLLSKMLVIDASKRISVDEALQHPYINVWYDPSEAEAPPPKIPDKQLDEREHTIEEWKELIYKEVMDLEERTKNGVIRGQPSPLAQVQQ
Sequence of JNK3 (P53779 whole entry, species assumed, canonical isoform): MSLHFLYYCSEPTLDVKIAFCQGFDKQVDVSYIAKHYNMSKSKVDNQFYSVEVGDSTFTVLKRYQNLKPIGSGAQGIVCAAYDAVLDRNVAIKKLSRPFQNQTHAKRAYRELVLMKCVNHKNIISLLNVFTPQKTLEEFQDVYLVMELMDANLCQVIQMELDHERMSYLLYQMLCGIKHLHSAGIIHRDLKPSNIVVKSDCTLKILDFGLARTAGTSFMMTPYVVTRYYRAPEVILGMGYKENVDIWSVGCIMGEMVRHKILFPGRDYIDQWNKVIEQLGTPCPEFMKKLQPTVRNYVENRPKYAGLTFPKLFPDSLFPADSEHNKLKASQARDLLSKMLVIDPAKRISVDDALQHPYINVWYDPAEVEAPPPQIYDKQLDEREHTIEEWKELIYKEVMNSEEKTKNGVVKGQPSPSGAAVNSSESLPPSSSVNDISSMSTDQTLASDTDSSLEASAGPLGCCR

Structure (SMILES) | pIC50 (JNK3) | pIC50 (JNK1) | pIC50 (JNK2) | reduction of p-cjun in the hippocampus ([1]; FVB mice, 300 mg/kg, 4 hours after treatment with kainic acid, statistically significant (unpaired t-test)) [%] | p-cJun Mean ([1]; female FVB/N mice, 300 mg/kg PO 30 min before 25 mg/kg kainic acid i.p., hippocampus 4 h after kainic acid) [ng/mL] | p-cJun % of Vehicle ([1]; female FVB/N mice, 300 mg/kg PO, hippocampus 4 h after kainic acid, relative to kainic acid + vehicle group) [%]
O=C(Cc1cccc2cnccc12)Nc1scc(Cl)c1-c1ncn[nH]1 [N-(4-chloro-3-(1H-1,2,4-triazol-5-yl)thiophen-2-yl)-2-(isoquinolin-5-yl)acetamide] | > 7.00 | > 7.00 | > 7.00 | 51 | 0.927 | 49.2
N#Cc1csc(NC(=O)Cn2c(=O)ccc3cc(C(F)(F)F)ccc32)c1-n1ccnn1 [N-(4-cyano-3-(1H-1,2,3-triazol-1-yl)thiophen-2-yl)-2-(2-oxo-6-(trifluoromethyl)quinolin-1(2H)-yl)acetamide] | 5.00 to 7.00 | 5.00 to 7.00 | 5.00 to 7.00 |  |  | 
N#Cc1csc(NC(=O)Cn2c(=O)ccc3cc(C(F)(F)F)ccc32)c1-n1nccn1 [N-(4-cyano-3-(2H-1,2,3-triazol-2-yl)thiophen-2-yl)-2-(2-oxo-6-(trifluoromethyl)quinolin-1(2H)-yl)acetamide] | > 7.00 | > 7.00 | > 7.00 |  |  | 
N#Cc1csc(NC(=O)Cn2c(=O)ccc3cc(C(F)(F)F)ccc32)c1-c1ncco1 [N-(4-cyano-3-(oxazol-2-yl)thiophen-2-yl)-2-(2-oxo-6-(trifluoromethyl)quinolin-1(2H)-yl)acetamide] | > 7.00 | > 7.00 | > 7.00 |  |  | 
N#Cc1csc(NC(=O)Cn2c(=O)ccc3cc(C(F)(F)F)ccc32)c1-c1nccs1 [N-(4-cyano-3-(thiazol-2-yl)thiophen-2-yl)-2-(2-oxo-6-(trifluoromethyl)quinolin-1(2H)-yl)acetamide] | > 7.00 | > 7.00 | > 7.00 |  |  | 
N#Cc1csc(NC(=O)Cn2c(=O)ccc3cc(C(F)(F)F)ccc32)c1-c1cscn1 [N-(4-cyano-3-(thiazol-4-yl)thiophen-2-yl)-2-(2-oxo-6-(trifluoromethyl)quinolin-1(2H)-yl)acetamide] | > 7.00 | > 7.00 | > 7.00 |  |  | 
N#Cc1csc(NC(=O)Cn2c(=O)ccc3cc(C(F)(F)F)ccc32)c1-c1cncs1 [N-(4-cyano-3-(thiazol-5-yl)thiophen-2-yl)-2-(2-oxo-6-(trifluoromethyl)quinolin-1(2H)-yl)acetamide] | 5.00 to 7.00 | 5.00 to 7.00 | 5.00 to 7.00 |  |  | 
Cc1csc(NC(=O)Cc2ccc(OCCCN3CCCCC3)cc2)c1-c1ncn[nH]1 [N-(4-methyl-3-(1H-1,2,4-triazol-5-yl)thiophen-2-yl)-2-(4-(3-(piperidin-1-yl)propoxy)phenyl)acetamide] | 5.00 to 7.00 | 5.00 to 7.00 | 5.00 to 7.00 |  |  | 
Cc1n[nH]c(-c2c(C)csc2NC(=O)CN2C(=O)CCc3ccccc32)n1 [N-(4-methyl-3-(3-methyl-1H-1,2,4-triazol-5-yl)thiophen-2-yl)-2-(2-oxo-3,4-dihydroquinolin-1(2H)-yl)acetamide] | > 7.00 | > 7.00 | > 7.00 |  |  | 
Cc1n[nH]c(-c2c(C)csc2NC(=O)Cc2ccc(OCCCN3CCCCC3)cc2)n1 [N-(4-methyl-3-(3-methyl-1H-1,2,4-triazol-5-yl)thiophen-2-yl)-2-(4-(3-(piperidin-1-yl)propoxy)phenyl)acetamide] | 5.00 to 7.00 | 5.00 to 7.00 | 5.00 to 7.00 |  |  | 
O=C(Cn1c(=O)ccc2cc(C(F)(F)F)ccc21)Nc1sc(Cl)cc1-c1ncn[nH]1 [N-(5-chloro-3-(1H-1,2,4-triazol-5-yl)thiophen-2-yl)-2-(2-oxo-6-(trifluoromethyl)quinolin-1(2H)-yl)acetamide] | 5.00 to 7.00 | > 7.00 | 5.00 to 7.00 |  |  | 

Now from value to compound, other results behind:

pIC50 (JNK3) | pIC50 (JNK1) | pIC50 (JNK2) | Structure (SMILES) | reduction of p-cjun in the hippocampus ([1]; FVB mice, 300 mg/kg, 4 hours after treatment with kainic acid, statistically significant (unpaired t-test)) [%] | p-cJun Mean ([1]; female FVB/N mice, 300 mg/kg PO 30 min before 25 mg/kg kainic acid i.p., hippocampus 4 h after kainic acid) [ng/mL] | p-cJun % of Vehicle ([1]; female FVB/N mice, 300 mg/kg PO, hippocampus 4 h after kainic acid, relative to kainic acid + vehicle group) [%]
> 7.00 | > 7.00 | > 7.00 | Cn1cnc(-c2c(C#N)csc2NC(=O)CN2C(=O)CCc3ncccc32)n1 [N-(4-cyano-3-(1-methyl-1H-1,2,4-triazol-3-yl)thiophen-2-yl)-2-(2-oxo-3,4-dihydro-1,5-naphthyridin-1(2H)-yl)acetamide] |  |  | 
> 7.00 | > 7.00 | > 7.00 | Cn1cnc(-c2c(C#N)csc2NC(=O)Cc2cccc3ncccc23)n1 [N-(4-cyano-3-(1-methyl-1H-1,2,4-triazol-3-yl)thiophen-2-yl)-2-(quinolin-5-yl)acetamide] |  |  | 
> 7.00 | > 7.00 | > 7.00 | N#Cc1csc(NC(=O)CN2C(=O)CCc3ncccc32)c1-c1nc[nH]n1 [N-(4-cyano-3-(1H-1,2,4-triazol-3-yl)thiophen-2-yl)-2-(2-oxo-3,4-dihydro-1,5-naphthyridin-1(2H)-yl)acetamide] |  |  | 
> 7.00 | > 7.00 | > 7.00 | N#Cc1csc(NC(=O)CN2C(=O)CCc3ccccc32)c1-c1ncn[nH]1 [N-(4-cyano-3-(1H-1,2,4-triazol-5-yl)thiophen-2-yl)-2-(2-oxo-3,4-dihydroquinolin-1(2H)-yl)acetamide] |  |  | 
> 7.00 | > 7.00 | > 7.00 | N#Cc1csc(NC(=O)Cc2cccc3cnccc23)c1-c1ncn[nH]1 [N-(4-cyano-3-(1H-1,2,4-triazol-5-yl)thiophen-2-yl)-2-(isoquinolin-5-yl)acetamide] |  |  | 
> 7.00 | > 7.00 | > 7.00 | N#Cc1csc(NC(=O)Cc2cccc3ncccc23)c1-c1nnc[nH]1 [N-(4-cyano-3-(4H-1,2,4-triazol-3-yl)thiophen-2-yl)-2-(quinolin-5-yl)acetamide] |  |  | 
> 7.00 | > 7.00 | 5.00 to 7.00 | N#Cc1csc(NC(=O)Cc2cccc3ncccc23)c1-c1cnccn1 [N-(4-cyano-3-(pyrazin-2-yl)thiophen-2-yl)-2-(quinolin-5-yl)acetamide] |  |  | 
> 7.00 | > 7.00 | > 7.00 | N#Cc1csc(NC(=O)CN2C(=O)CCc3ncccc32)c1-c1nccs1 [N-(4-cyano-3-(thiazol-2-yl)thiophen-2-yl)-2-(2-oxo-3,4-dihydro-1,5-naphthyridin-1(2H)-yl)acetamide] |  |  | 
5.00 to 7.00 | 5.00 to 7.00 | 5.00 to 7.00 | Cc1csc(NC(=O)Cc2cccc3nccnc23)c1-c1ncn[nH]1 [N-(4-methyl-3-(1H-1,2,4-triazol-5-yl)thiophen-2-yl)-2-(quinoxalin-5-yl)acetamide] |  |  | 
5.00 to 7.00 | 5.00 to 7.00 | 5.00 to 7.00 | Cc1noc(-c2c(C)csc2NC(=O)Cc2cccc3ccccc23)n1 [N-(4-methyl-3-(3-methyl-1,2,4-oxadiazol-5-yl)thiophen-2-yl)-2-(naphthalen-1-yl)acetamide] |  |  | 
> 7.00 | > 7.00 | 5.00 to 7.00 | Cc1n[nH]c(-c2c(C)csc2NC(=O)Cc2cccc3ncccc23)n1 [N-(4-methyl-3-(3-methyl-1H-1,2,4-triazol-5-yl)thiophen-2-yl)-2-(quinolin-5-yl)acetamide] |  |  | 
5.00 to 7.00 | 5.00 to 7.00 | 5.00 to 7.00 | Cc1n[nH]c(-c2c(C)csc2NC(=O)Cc2cccc3nccnc23)n1 [N-(4-methyl-3-(3-methyl-1H-1,2,4-triazol-5-yl)thiophen-2-yl)-2-(quinoxalin-5-yl)acetamide] |  |  | 
